Measured values as given in PubChem BioAssay (NCI).
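Each compound was tested at five concentrations against cells in 96-well plates for 48 hours. At the TGI there is no net growth.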

Experiments:
Assay in all cases: inhibition of tumour cell growth, NCI panel, 48 h
[1] = tested on: KM12 colon
[2] = tested on: T-47D breast
[3] = tested on: SN12C renal
[4] = tested on: RXF 393 renal
[5] = tested on: TK-10 renal
[6] = tested on: SF-295 CNS
[7] = tested on: LOX IMVI melanoma
[8] = tested on: NCI/ADR-RES ovarian
[9] = tested on: PC-3 prostate
[10] = tested on: A549 NSCLC
[11] = tested on: MDA-MB-231 breast
[12] = tested on: NCI-H460 lung
[13] = tested on: NCI-H226 lung
[14] = tested on: HOP-62 NSCLC
[15] = tested on: UO-31 renal
[16] = tested on: RPMI-8226 leukemia
[17] = tested on: NCI-H23 lung
[18] = tested on: MOLT-4 leukemia
[19] = tested on: EKVX NSCLC
[20] = tested on: MDA-N
[21] = tested on: DU-145 prostate
[22] = tested on: SK-OV-3 ovarian
[23] = tested on: 786-0 renal
[24] = tested on: SF-539 CNS
[25] = tested on: UACC-62 melanoma
[26] = tested on: U251 CNS
[27] = tested on: OVCAR-3 ovarian
[28] = tested on: HT29 colon
[29] = tested on: ACHN renal
[30] = tested on: HCT-15 colon
[31] = tested on: BT-549 breast
[32] = tested on: CCRF-CEM leukemia
[33] = tested on: K-562 leukemia
[34] = tested on: SK-MEL-5 melanoma
[35] = tested on: COLO 205 colon
[36] = tested on: IGROV1 ovarian
[37] = tested on: MALME-3M melanoma
[38] = tested on: HOP-92 NSCLC
[39] = tested on: SK-MEL-2 melanoma
[40] = tested on: SNB-19 CNS
[41] = tested on: SR leukemia
[42] = tested on: OVCAR-4 ovarian
[43] = tested on: OVCAR-5 ovarian
[44] = tested on: MDA-MB-435
[45] = tested on: HCT-116 colon
[46] = tested on: M14 melanoma
[47] = tested on: SK-MEL-28 melanoma
[48] = tested on: CAKI-1 renal
[49] = tested on: HCC-2998 colon
[50] = tested on: HL-60(TB) leukemia
[51] = tested on: UACC-257 melanoma
[52] = tested on: MCF7 breast
[53] = tested on: SNB-75 CNS
[54] = tested on: SF-268 CNS
[55] = tested on: NCI-H522 lung
[56] = tested on: A498 renal
[57] = tested on: SW-620 colon
[58] = tested on: OVCAR-8 ovarian

Measured: TGI

CCOP(=O)(OCC)C(Nc1cccc([N+](=O)[O-])c1)c1ccccc1 (stereo not drawn)
25.5 µM: [36]
62.1 µM: [2]
not listed: [57] | [58]
> 100 µM: all other assays above

CC1(C)C2CCC(N)(C2)C1N (stereo not drawn)
not listed: [11] | [24] | [28] | [37] | [54] | [55]
> 100 µM: all other assays above
